Source: patent US20250171437A1 (Agios Pharmaceuticals,Inc., priority 2022, published 2025)

target: T1, human PAH with the R408W mutation (A375 R408W cells) (Homo sapiens, UniProt P00439, R408W); test: Cell Based Phenylalanine Flux Assay; details: A375 R408W cells; 24 hrs with compound, then 20 μM sepiapterin and 800 μM 13C9,15N-Phenylalanine for 4 hours; 13C-Tyrosine by LC-MS; average where tested multiple times
T1 construct: expressed in transfected cells
T1 sequence (P00439 1-452 R408W): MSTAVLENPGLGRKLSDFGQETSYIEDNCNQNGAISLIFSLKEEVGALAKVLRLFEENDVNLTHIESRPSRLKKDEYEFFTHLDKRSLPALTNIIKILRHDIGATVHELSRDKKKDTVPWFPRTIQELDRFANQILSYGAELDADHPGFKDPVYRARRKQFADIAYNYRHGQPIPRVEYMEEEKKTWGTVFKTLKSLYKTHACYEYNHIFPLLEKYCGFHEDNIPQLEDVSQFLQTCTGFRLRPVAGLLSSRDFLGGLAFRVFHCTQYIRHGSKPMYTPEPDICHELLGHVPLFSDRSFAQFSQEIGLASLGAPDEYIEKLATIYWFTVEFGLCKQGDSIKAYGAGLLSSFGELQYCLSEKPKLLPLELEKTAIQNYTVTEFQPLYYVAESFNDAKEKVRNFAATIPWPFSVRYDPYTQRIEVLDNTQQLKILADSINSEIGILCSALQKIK
Procedure, shortened: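 LC-MS quantitation of 13C-tyrosine in media gave AC50 values. Stable A375 R408W PAH cells were preincubated 24 h with compound, then fed 800 μM labelled Phe plus 20 μM sepiapterin for 4 h. Dose curves were 10-point, tested in duplicate, averaged over repeat runs.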

| Structure (SMILES) | AC50 [µM] |
| --- | --- |
| CC(C)(O)c1nc(Cl)c(C(=O)N2CCc3[nH]cnc3[C@@H]2c2nc3ccc(F)cc3o2)o1 [Example 270, (R)-(4-chloro-2-(2-hydroxypropan-2-yl)oxazol-5-yl)(4-(6-fluorobenzo[d]oxazol-2-yl)-6,7-dihydro-1H-imidazo[4,5-c]pyridin-5(4H)-yl)methanone] | ≥ 5 |
| O=C(c1cnn2ccccc12)N1Cc2[nH]cnc2[C@H]1c1nc2ccccc2o1 [Example 929, (S)-(4-(benzo[d]oxazol-2-yl)-4,6-dihydropyrrolo[3,4-d]imidazol-5(1H)-yl)(pyrazolo[1,5-a]pyridin-3-yl)methanone] | 1 to 5 |
| Cn1nc(Br)nc1C(=O)N1CCc2[nH]cnc2[C@H]1c1nc2cccc(F)c2o1 [Example 473, (S)-(3-bromo-1-methyl-1H-1,2,4-triazol-5-yl)(4-(7-fluorobenzo[d]oxazol-2-yl)-6,7-dihydro-1H-imidazo[4,5-c]pyridin-5(4H)-yl)methanone] | 0.5 to 1 |
| O=C(c1oc(N2CCOCC2)nc1C(F)F)N1CCc2[nH]cnc2[C@@H]1c1nc2cc(F)ccc2o1 [Example 414, (R)-(4-(difluoromethyl)-2-morpholinooxazol-5-yl)(4-(5-fluorobenzo[d]oxazol-2-yl)-6,7-dihydro-1H-imidazo[4,5-c]pyridin-5(4H)-yl)methanone] | 1 to 5 |
| CC(C)(O)c1nc(Br)c(C(=O)N2CCc3[nH]cnc3[C@@H]2c2nc3c(F)cccc3o2)o1 [Example 251, (R)-(4-bromo-2-(2-hydroxypropan-2-yl)oxazol-5-yl)(4-(4-fluorobenzo[d]oxazol-2-yl)-6,7-dihydro-1H-imidazo[4,5-c]pyridin-5(4H)-yl)methanone] | 1 to 5 |
| O=C(c1oc(C2(O)CCC2)nc1C(F)F)N1CCc2[nH]cnc2[C@@H]1c1nc2cc(F)ccc2o1 [Example 690, (R)-(4-(difluoromethyl)-2-(1-hydroxycyclobutyl)oxazol-5-yl)(4-(5-fluorobenzo[d]oxazol-2-yl)-6,7-dihydro-1H-imidazo[4,5-c]pyridin-5(4H)-yl)methanone] | 1 to 5 |
| CC1CN(C(=O)c2ocnc2C(F)F)[C@H](c2nc3cccc(F)c3o2)c2nc[nH]c21 (single isomer, unassigned) [Example 804] | ≤ 0.5 |
| CNc1cn2ncc(C(=O)N3CCc4[nH]cnc4[C@H]3c3nc4cc(F)ccc4o3)c2cc1Cl [Example 205, (S)-(5-chloro-6-(methylamino)pyrazolo[1,5-a]pyridin-3-yl)(4-(5-fluorobenzo[d]oxazol-2-yl)-6,7-dihydro-1H-imidazo[4,5-c]pyridin-5(4H)-yl)methanone] | ≤ 0.5 |
| COc1cc(F)c2oc([C@H]3c4nc[nH]c4CCN3C(=O)c3ocnc3C(F)F)nc2c1 [Example 664, (R)-(4-(difluoromethyl)oxazol-5-yl)(4-(7-fluoro-5-methoxybenzo[d]oxazol-2-yl)-6,7-dihydro-1H-imidazo[4,5-c]pyridin-5(4H)-yl)methanone] | ≤ 0.5 |
| O=C(c1cnco1)N1CCc2[nH]cnc2[C@@H]1c1nc2cc(F)cc(F)c2o1 [Example 576, (R)-(4-(5,7-difluorobenzo[d]oxazol-2-yl)-6,7-dihydro-1H-imidazo[4,5-c]pyridin-5(4H)-yl)(oxazol-5-yl)methanone] | 1 to 5 |
| FC(F)(F)c1nnc(N2Cc3[nH]cnc3[C@H]2c2nc3ccccc3o2)o1 [Example 946, (S)-2-(5-(5-(trifluoromethyl)-1,3,4-oxadiazol-2-yl)-1,4,5,6-tetrahydropyrrolo[3,4-d]imidazol-4-yl)benzo[d]oxazole] | 1 to 5 |

Other lines, results leading:

| AC50 [µM] | Structure (SMILES) |
| --- | --- |
| ≤ 0.5 | O=C(c1ocnc1C(F)F)N1CCc2[nH]cnc2[C@H]1c1nc2cc(F)ccc2o1 [Example 51, (S)-(4-(difluoromethyl)oxazol-5-yl)(4-(5-fluorobenzo[d]oxazol-2-yl)-6,7-dihydro-1H-imidazo[4,5-c]pyridin-5(4H)-yl)methanone] |
| 1 to 5 | Cc1ccc2oc([C@H]3c4nc[nH]c4CCN3C(=O)c3nnc(-c4cnn(C)c4)o3)nc2c1 [Example 112, (R)-(5-(1-methyl-1H-pyrazol-4-yl)-1,3,4-oxadiazol-2-yl)(4-(5-methylbenzo[d]oxazol-2-yl)-6,7-dihydro-1H-imidazo[4,5-c]pyridin-5(4H)-yl)methanone] |
| 0.5 to 1 | Cn1nc(Cl)cc1C(=O)N1CCc2[nH]cnc2[C@H]1c1nc2cc(F)ccc2o1 [Example 127, (S)-(3-chloro-1-methyl-1H-pyrazol-5-yl)(4-(5-fluorobenzo[d]oxazol-2-yl)-6,7-dihydro-1H-imidazo[4,5-c]pyridin-5(4H)-yl)methanone] |
| 0.5 to 1 | CN(C)c1ccc2c(C(=O)N3CCc4[nH]cnc4[C@H]3c3nc4cc(F)ccc4o3)cnn2c1 [Example 91, (S)-(6-(dimethylamino)pyrazolo[1,5-a]pyridin-3-yl)(4-(5-fluorobenzo[d]oxazol-2-yl)-6,7-dihydro-1H-imidazo[4,5-c]pyridin-5(4H)-yl)methanone] |
| ≤ 0.5 | CN1CCN(c2cn3ncc(C(=O)N4CCc5[nH]cnc5[C@H]4c4nc5cc(F)ccc5o4)c3cc2Cl)CC1 [Example 181, (S)-(5-chloro-6-(4-methylpiperazin-1-yl)pyrazolo[1,5-a]pyridin-3-yl)(4-(5-fluorobenzo[d]oxazol-2-yl)-6,7-dihydro-1H-imidazo[4,5-c]pyridin-5(4H)-yl)methanone] |
| 0.5 to 1 | COCc1nc(C(F)F)c(C(=O)N2CCc3[nH]cnc3[C@H]2c2nc3cc(F)ccc3o2)o1 [Example 110, (S)-(4-(difluoromethyl)-2-(methoxymethyl)oxazol-5-yl)(4-(5-fluorobenzo[d]oxazol-2-yl)-6,7-dihydro-1H-imidazo[4,5-c]pyridin-5(4H)-yl)methanone] |
| ≤ 0.5 | O=C(c1oc(-c2ccc(F)cn2)nc1C(F)F)N1CCc2[nH]cnc2[C@H]1c1nc2cc(F)ccc2o1 [Example 418, (S)-(4-(difluoromethyl)-2-(5-fluoropyridin-2-yl)oxazol-5-yl)(4-(5-fluorobenzo[d]oxazol-2-yl)-6,7-dihydro-1H-imidazo[4,5-c]pyridin-5(4H)-yl)methanone] |
| 1 to 5 | O=C(c1nnc(-c2ccccn2)o1)N1CCc2[nH]cnc2[C@@H]1c1nc2ccc(F)c(F)c2o1 [Example 545, (R)-(4-(6,7-difluorobenzo[d]oxazol-2-yl)-6,7-dihydro-1H-imidazo[4,5-c]pyridin-5(4H)-yl)(5-(pyridin-2-yl)-1,3,4-oxadiazol-2-yl)methanone] |
| 0.5 to 1 | O=C(c1nnc(-c2ccc(C(F)(F)F)cc2)o1)N1CCc2[nH]cnc2[C@H]1c1nc2cc(F)ccc2o1 [Example 90, (S)-(4-(5-fluorobenzo[d]oxazol-2-yl)-6,7-dihydro-1H-imidazo[4,5-c]pyridin-5(4H)-yl)(5-(4-(trifluoromethyl)phenyl)-1,3,4-oxadiazol-2-yl)methanone] |
| 0.5 to 1 | COc1ccc(-c2nnc(C(=O)N3CCc4[nH]cnc4[C@H]3c3nc4cc(F)ccc4o3)o2)nc1 [Example 442, (S)-(4-(5-fluorobenzo[d]oxazol-2-yl)-6,7-dihydro-1H-imidazo[4,5-c]pyridin-5(4H)-yl)(5-(5-methoxypyridin-2-yl)-1,3,4-oxadiazol-2-yl)methanone] |
| ≤ 0.5 | O=C(c1ocnc1C(F)(F)F)N1CCc2[nH]cnc2[C@H]1c1nc2cc(F)ccc2o1 [Example 23, (S)-(4-(5-fluorobenzo[d]oxazol-2-yl)-6,7-dihydro-1H-imidazo[4,5-c]pyridin-5(4H)-yl)(4-(trifluoromethyl)oxazol-5-yl)methanone] |
| 0.5 to 1 | CC(F)(F)c1ncoc1C(=O)N1CCc2[nH]cnc2[C@H]1c1nc2cc(F)ccc2o1 [Example 153, (S)-(4-(1,1-difluoroethyl)oxazol-5-yl)(4-(5-fluorobenzo[d]oxazol-2-yl)-6,7-dihydro-1H-imidazo[4,5-c]pyridin-5(4H)-yl)methanone] |
| 1 to 5 | Cn1cc(-c2nnc(C(=O)N3CCc4[nH]cnc4[C@@H]3c3nc4c(F)cc(F)cc4o3)o2)cn1 [Example 521, (R)-(4-(4,6-difluorobenzo[d]oxazol-2-yl)-6,7-dihydro-1H-imidazo[4,5-c]pyridin-5(4H)-yl)(5-(1-methyl-1H-pyrazol-4-yl)-1,3,4-oxadiazol-2-yl)methanone] |

same assay, conditions: A375 cells expressing R408W PAH; 24 hrs with compound, then 20 μM sepiapterin and 800 μM 13C9,15N-Phenylalanine for 4 hours; 13C-Tyrosine by LC-MS; average where tested multiple times

| Structure (SMILES) | AC50 [µM] |
| --- | --- |
| Cc1nc(C(C)O)oc1C(=O)N1CCc2[nH]cnc2C1c1nc2c(F)cccc2o1 (stereo not shown) | ≥ 5 |
| CN(C)CCCOc1ccc2c(C(=O)N3CCc4[nH]cnc4C3c3nc4cc(F)ccc4o3)cnn2c1 (stereo not shown) | ≥ 5 |
| CC(C)(O)c1cc(C(=O)N2CCc3[nH]cnc3C2c2nc3c(F)cccc3o2)no1 (stereo not shown) | 1 to 5 |
| Cc1cccc2nc(C3c4nc[nH]c4CCN3C(=O)c3cnn4cc(N5CCC(O)CC5)ccc34)oc12 (stereo not shown) | 1 to 5 |

More lines, now with the values ahead:

| AC50 [µM] | Structure (SMILES) |
| --- | --- |
| ≥ 5 | CC(C)(O)c1cc(C(=O)N2CCc3[nH]cnc3C2c2nc3cc(F)ccc3o2)sn1 (stereo not shown) |
| 1 to 5 | COC(C)(C)c1nc(C)c(C(=O)N2CCc3[nH]cnc3C2c2nc3cc(F)ccc3o2)o1 (stereo not shown) |
| 1 to 5 | O=C(c1nnc(-c2ccc(C(F)(F)F)cn2)o1)N1CCc2[nH]cnc2C1c1nc2cc(F)ccc2o1 (stereo not shown) |
| 1 to 5 | Cn1ncnc1C(=O)N1CCc2[nH]cnc2C1c1nc2ccc(F)cc2o1 (stereo not shown) |
| ≥ 5 | Cc1ccc2nc(C3c4nc[nH]c4CCN3C(=O)c3ocnc3C#N)oc2c1 (stereo not shown) |
| 1 to 5 | O=C(Cc1cnn2ccccc12)N1CCc2[nH]cnc2C1c1nc2cc(F)ccc2o1 (stereo not shown) |
